Source: US20240350494A1, “THERAPEUTIC MODULATION OF INTEGRINS” (Pliant Therapeutics, Inc., priority 2021, published 2024)

Legend:
[1] = test system: Type I Collagen gene Col1a1 expression; assay: Precision cut lung slices, acute bleomycin exposure, Col1a1 expression; type: cell-based, mice (C57BL/6); conditions: for Type I Collagen gene Col1a1 expression, normalized to DMSO control slices: 3 days culture, integrin inhibitors at IC50 for TGF-beta activation, pan-αV and ALK5 inhibitors at 10× reported IC50, FIG. 3A
Method: Mice (C57BL/6) were administered 3 U/kg of bleomycin (Teva Pharmaceuticals; North Wales, PA) on day 0 via oropharyngeal aspiration while under anesthesia. On day 14, precision cut lung slices were obtained. Following euthanization, 2% low gelling temp agarose was injected into the mouse lungs via the trachea. […] The lobes were then subjected to precision slicing to obtain samples for culture using a microtome (Compresstome VF-300-OZ, Precisionary; Greenville, NC). Individual slices were distributed in a multiwell culture plate and cultured for 3 days under control (DMSO) and test compound conditions.

COL1A1 expression = assay: Precision cut lung slices from human IPF explants, COL1A1 expression; type: cell-based; conditions: for COL1A1 expression, treatment alone: PCLS from 5-7 IPF samples, seven days, nintedanib 75 nM, pirfenidone 50 μm
From the text: Explanted lung tissue was obtained from human IPF subjects and inflated with agarose as described in the preceding examples. Biopsy cores were obtained from the agarose-inflated lung tissue. The biopsy cores were subjected to precision slicing to obtain several hundred μm thick. Individual slices were distributed in a multiwell culture plate and cultured for […] under control (DMSO) and test compound conditions. The viability of the slices over the course of culturing was confirmed by WST-1 assay of mitochondrial activity.
PCLS from 5-7 idopathic pulmonary fibrosis (IPF) lung tissue samples were cultured for seven days with one of: DMSO; Compound 5 at 200 nM; nintedanib at 75 nM; pirfenidone at 50 μm; a combination of Compound 5 at 200 nM and nintedanib at 75 nM; a combination of Compound 5 at 200 nM and pirfenidone at 50 μm; or an Alk5 inhibitor at 1 μm. […] FIG. 4D is a bar graph showing relative expression of COL1A1 in precision cut lung slices (PCLS) from idopathic pulmonary fibrosis (IPF) lung tissue upon exposure to Compound 5, clinical standard of care compounds nintedanib (Nin) and pirfenidone (Pirf), and an ALK5 inhibitor, all versus DMSO control.
PCLS from a single IPF lung tissue sample were cultured for seven days with Compound 5 at concentrations of 200 μM, 2 nM, 60 nM, 200 nM, and 1 μM, along with 0.1% DMSO control and an Alk5 inhibitor at 1 μM. […] COL1A1 expression is also graphed for the PCLS in the presence of 0.1% DMSO control, and an Alk5 inhibitor at 1 μM.

lung Col1a1 expression = assay: Precision cut lung slices, chronic bleomycin exposure, Col1a1 expression; type: cell-based, mice (C57BL/6); conditions: 7 days culture, ALK5 inhibitor at 10× IC50; for lung slice Col1a1 expression compared to DMSO vehicle control slices: nintedanib and pirfenidone at 10× therapeutic concentrations, FIG. 4A
Method: (§1) Mice (C57BL/6) were administered 3 U/kg of bleomycin (Teva Pharmaceuticals; North Wales, PA) on Day 0 and 1 U/kg of bleomycin on days 14, 28, 42 and 56 via oropharyngeal aspiration while under anesthesia. At day 70, 14 days after the final bleomycin insult, precision cut lung slices were obtained. Following euthanization, 2% low gelling temp agarose was injected into the mouse lungs via the trachea. […] The lobes were then subjected to precision slicing to obtain samples for culture using a microtome (Compresstome VF-300-OZ, Precisionary; Greenville, NC). Individual slices were distributed in a multiwell culture plate and cultured for 7 days under control (DMSO) and test compound conditions. The viability of the slices over the course of culturing was confirmed by WST-1 assay of mitochondrial activity.
During the culture period, slices in the control group were treated with DMSO and slices in the test group were treated with a DMSO solution of one of: the selective antibody αVβ6 inhibitor 3G9; the αVβ1-selective small molecule inhibitor; a combination of the selective antibody αVβ6 inhibitor 3G9 and the αVβ1-selective small molecule inhibitor; compound 5; and the small molecule ALK5 inhibitor. The selective αVβ1 and αVβ6 integrin inhibitors were analyzed at ≥their respective IC90 concentrations for inhibition of TGF-beta activation. Compound 5 was run at approximate IC50 for inhibition of TGF-beta activation by αVβ6.
as §1, with “following” for “after”
During the culture period, slices in the control group were treated with DMSO and slices in the test group were treated with a DMSO solution of one of: compound 5; nintedanib; pirfenidone; a combination of nintedanib and compound 5; a combination of pirfenidone and compound 5; or the small molecule ALK5 inhibitor. Compound 5 was […] effective to equal or exceed its respective IC50 values at αVβ6 and αVβ1. […] Nintendanib and pirfenidone were analyzed at concentrations 10× their reported therapeutic concentrations.

| Structure (SMILES) | Type I Collagen gene Col1a1 expression, normalized to DMSO control slices [1] | lung Col1a1 expression, normalized to DMSO control slices (COL1A1 expression; human IPF slices, 3 days, 3G9 ≥400 ng/mL, compound 5 179 nM, ALK5 inhibitor 1 μM, FIG. 4C) | lung Col1a1 expression, normalized to DMSO control slices (lung Col1a1 expression; Compound 5 at approximate IC50 (αVβ6), selective inhibitors at ≥IC90, FIG. 3B) | lung slice Col1a1 expression compared to DMSO vehicle control slices (lung Col1a1 expression) | COL1A1 expression, treatment alone (COL1A1 expression) | increase in concentration over compound 5 needed to reduce lung slice Col1a1 expression by 50% ([1]; acute bleomycin injured lung slices, FIG. 4B) [fold] |
| --- | --- | --- | --- | --- | --- | --- |
| CC(C)(C)c1cc(Br)cc([C@H](CC(=O)O)NC(=O)CNC(=O)c2cc(O)cc(NC3=NCC(O)CN3)c2)c1 (stereo partly drawn) [second pan-αV small molecule inhibitor, (3S)—N-[3-hydroxy-5-[(1,4,5,6-tetrahydro-5-hydroxy-2-pyrimidinyl)amino]benzoyl]glycyl-3-[3-bromo-5-(1,1-dimethylethyl)phenyl]-β-alanine] | decreased Type I Collagen gene Col1a1 expression comparably |  |  |  |  |  |
| Cc1cccc(-c2n[nH]cc2-c2ccc(F)c(-c3cnn(CCO)c3)c2)n1 [small molecule ALK5 inhibitor, 4-[2-Fluoro-5-[3-(6-methyl-2-pyridinyl)-1H-pyrazol-4-yl]phenyl]-1H-pyrazole-1-ethanol] | greatest decrease | substantial, statistically significant | greatest decrease | substantial, statistically significant (p<0.0001 vs vehicle) decrease |  |  |
| Cc1ccc(=O)n(-c2ccccc2)c1 [pirfenidone] |  |  |  | slight increase | did not significantly reduce |  |
| COC(=O)c1ccc2c(c1)NC(=O)/C2=C(\Nc1ccc(N(C)C(=O)CN2CCN(C)CC2)cc1)c1ccccc1 [nintedanib] |  |  |  | slight increase | did not significantly reduce | 5.2 |
